Experimental data from patent US8476298B2 (Exelixis, Inc., priority 2003, dated 2013).

Assays:
[1] = target: T1, c-Met (baculovirus expressed human c-Met kinase domain P948-S1343) (Homo sapiens, UniProt P08581); experiment: c-Met Luciferase-Coupled Chemiluminescent Kinase assay (LCCA); assay type: biochemical; conditions: Table 4, inhibition as IC50 class;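 note: kinase activity read as percent ATP left after reaction, by luciferase-luciferin chemiluminescence, with 1 µM ATP and 1 µM poly-EY substrate, 2 h at ambient temperature, 10-point dose-response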
T1 construct: human c-Met kinase domain P948-S1343; host or cells: baculovirus expression
T1 sequence (P08581 1011-1343 limits assumed): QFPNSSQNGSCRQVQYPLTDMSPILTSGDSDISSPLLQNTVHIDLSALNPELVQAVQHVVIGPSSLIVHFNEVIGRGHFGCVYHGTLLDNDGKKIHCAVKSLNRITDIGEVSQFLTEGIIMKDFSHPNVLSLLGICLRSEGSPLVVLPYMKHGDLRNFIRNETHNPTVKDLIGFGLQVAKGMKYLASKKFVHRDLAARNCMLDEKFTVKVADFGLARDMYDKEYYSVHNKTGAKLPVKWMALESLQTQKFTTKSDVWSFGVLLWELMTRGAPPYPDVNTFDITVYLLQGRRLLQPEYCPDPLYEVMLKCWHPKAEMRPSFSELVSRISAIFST

[2] = target: T2, KDR (baculovirus expressed human KDR kinase domain D807-V1356) (Homo sapiens, UniProt P35968); experiment: biochemical; conditions: Table 4, inhibition as IC50 class;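 note: Luciferase-coupled chemiluminescent kinase assay, activity read as percent ATP left after 4 h reaction at ambient temperature, ATP near KM, 10-point dose-response in 384-well plates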
T2 construct: human KDR kinase domain D807-V1356; host or cells: baculovirus expression
T2 sequence (P35968 807-1356): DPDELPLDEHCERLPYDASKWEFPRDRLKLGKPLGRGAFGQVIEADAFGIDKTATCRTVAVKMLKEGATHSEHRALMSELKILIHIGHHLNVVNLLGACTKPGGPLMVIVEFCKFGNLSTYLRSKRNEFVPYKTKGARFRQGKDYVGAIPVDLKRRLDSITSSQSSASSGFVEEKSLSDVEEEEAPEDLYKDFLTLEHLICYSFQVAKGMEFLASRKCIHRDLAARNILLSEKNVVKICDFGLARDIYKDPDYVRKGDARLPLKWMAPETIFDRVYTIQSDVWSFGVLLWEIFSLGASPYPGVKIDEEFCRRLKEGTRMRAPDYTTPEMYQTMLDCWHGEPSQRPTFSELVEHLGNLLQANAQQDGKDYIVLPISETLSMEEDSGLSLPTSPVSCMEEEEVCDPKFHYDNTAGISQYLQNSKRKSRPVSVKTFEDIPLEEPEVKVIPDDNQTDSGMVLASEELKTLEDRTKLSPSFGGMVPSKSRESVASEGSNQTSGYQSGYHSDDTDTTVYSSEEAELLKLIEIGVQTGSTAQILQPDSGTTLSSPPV

[3] = target: T3, Flt-4 (baculovirus expressed human Flt-4 kinase domain D725-R1298) (Homo sapiens, UniProt P35916); experiment: flt-4 Alphascreen Tyrosine Kinase assay; assay type: biochemical; conditions: Table 4, inhibition as IC50 class; read-out: flt4 IC50;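 note: AlphaScreen chemiluminescence read-out of biotinylated poly(Glu,Tyr) 4:1 phosphorylation via streptavidin donor and PY100 anti-phosphotyrosine acceptor beads, ATP near KM, 1 hr kinase reaction, 10-point dose-response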
T3 construct: human Flt-4 kinase domain D725-R1298; host or cells: baculovirus expression
T3 sequence (P35916 725-1298 isoform P35916-1): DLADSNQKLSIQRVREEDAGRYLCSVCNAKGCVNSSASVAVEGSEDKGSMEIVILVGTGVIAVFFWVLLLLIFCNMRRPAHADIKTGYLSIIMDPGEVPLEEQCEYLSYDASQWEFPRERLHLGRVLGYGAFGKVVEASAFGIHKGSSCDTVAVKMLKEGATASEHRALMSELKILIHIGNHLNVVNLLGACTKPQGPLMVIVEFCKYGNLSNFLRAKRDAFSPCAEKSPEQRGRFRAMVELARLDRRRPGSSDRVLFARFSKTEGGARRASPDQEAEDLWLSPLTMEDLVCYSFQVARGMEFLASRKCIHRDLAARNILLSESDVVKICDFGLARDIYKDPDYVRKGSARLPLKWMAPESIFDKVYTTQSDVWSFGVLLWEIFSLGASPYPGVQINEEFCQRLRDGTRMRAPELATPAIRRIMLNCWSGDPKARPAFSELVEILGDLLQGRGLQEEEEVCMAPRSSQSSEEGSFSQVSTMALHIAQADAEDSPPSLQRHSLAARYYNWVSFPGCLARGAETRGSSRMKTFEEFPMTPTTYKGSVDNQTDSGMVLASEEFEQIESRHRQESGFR
Protocol: Kinase activity and compound inhibition are investigated using one or more of the three assay formats described below. The ATP concentrations for each assay are selected to be close to the Michaelis-Menten constant (KM) for each individual kinase. Dose-response experiments are performed at 10 different inhibitor concentrations in a 384-well plate format. […] Typically H is close to unity. c-Met Assay
Biochemical activity for flt-4 was assessed using an Alphascreen Tyrosine Kinase protocol. AlphaScreen™ (Perkin Elmer) technology is a proximity assay employing microparticles. Singlet oxygen derived from a donor bead following laser excitation results in chemiluminescence when in proximity (100 Å) to an acceptor bead due to biomolecular interactions. For the Flt-4 assay, donor beads coated with streptavidin and acceptor beads coated with PY100 anti-phosphotyrosine antibody were used (Perkin Elmer). Biotinylated poly(Glu,Tyr) 4:1 (Perkin Elmer) was used as the substrate. Substrate phosphorylation was measured by addition of donor/acceptor beads by chemiluminescence following donor-acceptor bead complex formation. […] Reaction mixtures were incubated for 1 hr at ambient temperature. […] After 2-16 hr incubation at ambient temperature plates were read using an AlphaQuest reader (Perkin Elmer).

[4] = target: T4, Flt-3 (baculovirus expressed human Flt-3 kinase domain R571-S993) (Homo sapiens, UniProt P36888); experiment: biochemical; conditions: Table 4, inhibition as IC50 class; read-out: flt3 IC50;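 note: Luciferase-coupled chemiluminescent kinase assay, activity read as percent ATP left after a 3 h reaction at room temperature, ATP near KM, 10-point dose-response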
T4 construct: human Flt-3 kinase domain R571-S993; host or cells: baculovirus expression
T4 sequence (P36888 571-993): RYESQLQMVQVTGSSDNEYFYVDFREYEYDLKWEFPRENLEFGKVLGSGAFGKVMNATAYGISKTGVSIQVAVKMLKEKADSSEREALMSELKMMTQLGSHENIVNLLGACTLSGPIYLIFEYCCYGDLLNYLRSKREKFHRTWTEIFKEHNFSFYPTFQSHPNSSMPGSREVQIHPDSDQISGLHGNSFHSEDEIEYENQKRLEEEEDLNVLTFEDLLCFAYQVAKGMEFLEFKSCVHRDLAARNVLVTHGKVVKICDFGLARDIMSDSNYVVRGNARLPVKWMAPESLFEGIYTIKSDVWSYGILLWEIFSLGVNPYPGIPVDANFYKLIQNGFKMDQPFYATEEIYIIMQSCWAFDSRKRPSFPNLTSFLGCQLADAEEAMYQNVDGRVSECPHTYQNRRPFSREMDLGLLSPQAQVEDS

[5] = target: c-Kit kinase (Homo sapiens, UniProt P10721); experiment: c-Kit AlphaScreen kinase assay; assay type: biochemical; conditions: Table 4, inhibition as IC50 class;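 note: c-Kit kinase phosphorylating biotinylated poly(Glu,Tyr), ATP near its KM, 1 h reaction at ambient temperature, AlphaScreen chemiluminescence with streptavidin donor and anti-phosphotyrosine acceptor beads, 10-point inhibitor titration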
Chain of c-Kit kinase (P10721 26-976): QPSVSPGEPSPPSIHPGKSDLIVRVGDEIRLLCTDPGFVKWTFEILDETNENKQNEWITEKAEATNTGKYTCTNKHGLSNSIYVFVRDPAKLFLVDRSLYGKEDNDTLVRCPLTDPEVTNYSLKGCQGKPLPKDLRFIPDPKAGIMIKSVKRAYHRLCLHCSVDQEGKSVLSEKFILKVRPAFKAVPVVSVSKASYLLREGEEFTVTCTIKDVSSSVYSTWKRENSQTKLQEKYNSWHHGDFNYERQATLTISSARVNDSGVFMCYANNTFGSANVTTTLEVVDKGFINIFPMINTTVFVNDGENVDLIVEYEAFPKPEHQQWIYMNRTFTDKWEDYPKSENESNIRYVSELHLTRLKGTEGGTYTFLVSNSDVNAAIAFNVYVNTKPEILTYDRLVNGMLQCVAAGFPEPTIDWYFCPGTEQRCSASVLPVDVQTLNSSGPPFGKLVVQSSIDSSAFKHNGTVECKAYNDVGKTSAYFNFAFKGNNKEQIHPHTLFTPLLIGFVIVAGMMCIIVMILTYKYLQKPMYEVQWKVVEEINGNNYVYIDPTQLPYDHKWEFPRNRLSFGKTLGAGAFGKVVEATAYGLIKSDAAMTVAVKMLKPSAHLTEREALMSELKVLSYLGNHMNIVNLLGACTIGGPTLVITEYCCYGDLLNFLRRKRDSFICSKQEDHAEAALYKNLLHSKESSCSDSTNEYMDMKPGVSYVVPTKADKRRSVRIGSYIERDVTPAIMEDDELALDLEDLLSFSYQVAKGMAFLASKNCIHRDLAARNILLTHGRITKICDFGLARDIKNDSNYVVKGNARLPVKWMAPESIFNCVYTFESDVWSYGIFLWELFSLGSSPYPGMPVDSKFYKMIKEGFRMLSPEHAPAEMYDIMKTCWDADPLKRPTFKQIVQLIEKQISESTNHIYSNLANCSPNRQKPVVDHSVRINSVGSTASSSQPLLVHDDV

Row | SMILES | IC50 [1] [nM] | IC50 [2] [nM] | IC50 [3] [nM] | IC50 [4] [nM] | IC50 [5] [nM]
1 | COc1ccccc1CNC(=O)C(=O)Nc1ccc(Oc2ccnc3cc(OCC4CCNCC4)c(OC)cc23)c(F)c1 [Example 241, N-[3-fluoro-4-({6-(methyloxy)-7-[(piperidin-4-ylmethyl)oxy]quinolin-4-yl}oxy)phenyl]-N′-{[2-(methyloxy)phenyl]methyl}ethanediamide] | < 50 | < 50 | < 50 | < 50 | < 50
2 | COc1cc2c(Oc3ccc(NC(=O)C(=O)NCc4cccc(Cl)c4)cc3F)ccnc2cc1OCC1CCNCC1 [Example 243, N-[(3-chlorophenyl)methyl]-N′-[3-fluoro-4-({6-(methyloxy)-7-[(piperidin-4-ylmethyl)oxy]quinolin-4-yl}oxy)phenyl]ethanediamide] | < 50 | < 50 | 50 to 500 | 50 to 500 | < 50
3 | COc1cc2c(Oc3ccc(NC(=O)C(=O)NCc4ccccc4OC(F)(F)F)cc3F)ccnc2cc1OCC1CCNCC1 [Example 244, N-[3-fluoro-4-({6-(methyloxy)-7-[(piperidin-4-ylmethyl)oxy]quinolin-4-yl}oxy)phenyl]-N′-({2-[(trifluoromethyl)oxy]phenyl}methyl)ethanediamide] | < 50 | < 50 | < 50 | < 50 | < 50
4 | COc1cc2c(Oc3ccc(NC(=O)C(=O)NCc4ccccc4Cl)cc3F)ccnc2cc1OCC1CCNCC1 [Example 245, N-[(2-chlorophenyl)methyl]-N′-[3-fluoro-4-({6-(methyloxy)-7-[(piperidin-4-ylmethyl)oxy]quinolin-4-yl}oxy)phenyl]ethanediamide] | < 50 | < 50 | < 50 | < 50 | < 50
5 | COc1cc2c(Oc3ccc(NC(=O)C(=O)NCc4ccc(OC(F)(F)F)cc4)cc3F)ccnc2cc1OCC1CCNCC1 [Example 246, N-[3-fluoro-4-({6-(methyloxy)-7-[(piperidin-4-ylmethyl)oxy]quinolin-4-yl}oxy)phenyl]-N′-({4-[(trifluoromethyl)oxy]phenyl}methyl)ethanediamide] | < 50 | 50 to 500 | 50 to 500 | 50 to 500 | 50 to 500
6 | COc1cc2c(Oc3ccc(NC(=O)C(=O)NCCc4ccccc4)cc3F)ccnc2cc1OCC1CN(C)C1 [Example 250, N-(3-fluoro-4-{[7-{[(1-methylazetidin-3-yl)methyl]oxy}-6-(methyloxy)quinolin-4-yl]oxy}phenyl)-N′-(2-phenylethyl)ethanediamide] | < 50 | < 50 | < 50 | < 50 | < 50
7 | CC[C@@H](NC(=O)C(=O)Nc1ccc(Oc2ccnc3cc(OCC4CCNCC4)c(OC)cc23)c(F)c1)c1ccccc1 [Example 254, N-[3-fluoro-4-({6-(methyloxy)-7-[(piperidin-4-ylmethyl)oxy]quinolin-4-yl}oxy)phenyl]-N′-[(1R)-1-phenylpropyl]ethanediamide] | < 50 | 50 to 500 | 50 to 500 | 50 to 500 | 50 to 500
8 | COc1cc2c(Oc3ccc(NC(=O)C(=O)NCc4ccc(F)c(F)c4)cc3F)ccnc2cc1OCC1CCNCC1 [Example 256, N-[(3,4-difluorophenyl)methyl]-N′-[3-fluoro-4-({6-(methyloxy)-7-[(piperidin-4-ylmethyl)oxy]quinolin-4-yl}oxy)phenyl]ethanediamide] | < 50 | < 50 | < 50 | 50 to 500 | < 50
9 | COc1cc2c(Oc3ccc(NC(=O)C(=O)NCc4c(F)cccc4F)cc3F)ccnc2cc1OCC1CCNCC1 [Example 257, N-[(2,6-difluorophenyl)methyl]-N′-[3-fluoro-4-({6-(methyloxy)-7-[(piperidin-4-ylmethyl)oxy]quinolin-4-yl}oxy)phenyl]ethanediamide] | < 50 | < 50 | < 50 | 50 to 500 | < 50
